Reference: ChEMBL document CHEMBL1134426, “Derivatives of 17-(2-methylallyl)-substituted noroxymorphone: variation of the delta address and its effects on affinity and selectivity for the delta opioid receptor” (Bioorg Med Chem Lett, 2001)
pKi: −log10 of the molar value.

Legend:
[1] = molecular target: Opioid receptors; mu & delta (Homo sapiens) (UniProt P41143+P35372); experiment: Selectivity ratio for mu and delta opioid receptor binding; assay type: protein assay
[2] = molecular target: Opioid receptors; delta & kappa (Homo sapiens) (UniProt P41145+P41143); experiment: Selectivity ratio for kappa and delta opioid receptor binding; assay type: protein assay
Chain of Opioid receptors; delta & kappa (Homo sapiens) (P41143 whole entry, looked up): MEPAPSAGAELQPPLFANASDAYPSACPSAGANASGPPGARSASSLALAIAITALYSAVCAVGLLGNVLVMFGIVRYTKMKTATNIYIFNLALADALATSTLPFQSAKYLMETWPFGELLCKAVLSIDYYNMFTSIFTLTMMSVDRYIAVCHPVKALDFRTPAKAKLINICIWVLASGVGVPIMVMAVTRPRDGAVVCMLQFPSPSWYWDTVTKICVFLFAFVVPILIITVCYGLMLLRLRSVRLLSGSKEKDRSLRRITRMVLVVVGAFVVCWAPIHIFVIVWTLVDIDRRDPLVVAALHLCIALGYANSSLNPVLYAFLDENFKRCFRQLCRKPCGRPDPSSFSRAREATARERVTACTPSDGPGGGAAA
Chain of Opioid receptors; delta & kappa (Homo sapiens) (P41145 whole entry, looked up): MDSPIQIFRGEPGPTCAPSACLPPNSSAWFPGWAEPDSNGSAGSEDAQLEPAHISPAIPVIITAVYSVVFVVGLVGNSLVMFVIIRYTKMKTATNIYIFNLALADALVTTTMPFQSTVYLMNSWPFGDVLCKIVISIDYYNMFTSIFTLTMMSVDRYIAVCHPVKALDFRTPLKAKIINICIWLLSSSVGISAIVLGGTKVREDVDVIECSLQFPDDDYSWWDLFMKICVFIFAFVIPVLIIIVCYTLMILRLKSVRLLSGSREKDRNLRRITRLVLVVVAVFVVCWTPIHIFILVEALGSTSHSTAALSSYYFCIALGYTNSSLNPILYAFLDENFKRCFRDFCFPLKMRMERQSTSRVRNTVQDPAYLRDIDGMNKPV

[3] = molecular target: Kappa-type opioid receptor (Homo sapiens, UniProt P41145); experiment: Displacement of [3H]U-69593 from Opioid receptor kappa 1
Chain of Kappa-type opioid receptor (P41145 whole entry): as the sequence (P41145 whole entry, looked up) above

[4] = molecular target: Delta-type opioid receptor (Homo sapiens, UniProt P41143); experiment: Displacement of [3H]DADLE from Opioid receptor delta 1
Chain of Delta-type opioid receptor (P41143 whole entry): as the sequence (P41143 whole entry, looked up) above

Mu-type opioid receptor = Mu-type opioid receptor (Homo sapiens, UniProt P35372); experiment: Displacement of [3H]DAMGO from Opioid receptor mu 1
Chain of Mu-type opioid receptor (P35372 whole entry): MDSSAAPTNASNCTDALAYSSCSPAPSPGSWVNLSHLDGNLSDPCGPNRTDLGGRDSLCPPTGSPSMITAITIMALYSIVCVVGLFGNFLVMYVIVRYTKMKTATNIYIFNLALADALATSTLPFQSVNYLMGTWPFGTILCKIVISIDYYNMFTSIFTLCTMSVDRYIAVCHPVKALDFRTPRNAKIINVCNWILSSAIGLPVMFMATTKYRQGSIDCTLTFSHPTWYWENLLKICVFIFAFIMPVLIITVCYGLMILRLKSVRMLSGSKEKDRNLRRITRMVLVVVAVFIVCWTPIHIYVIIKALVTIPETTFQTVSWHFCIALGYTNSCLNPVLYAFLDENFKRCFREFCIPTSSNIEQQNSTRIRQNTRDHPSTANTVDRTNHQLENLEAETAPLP

Chain of Opioid receptors; mu & delta (Homo sapiens) (P35372 whole entry, looked up): as the sequence (P35372 whole entry) above
Chain of Opioid receptors; mu & delta (Homo sapiens) (P41143 whole entry, looked up): as the sequence (P41143 whole entry, looked up) above

## C=C(C)CN1CCC23c4c5ccc(OC)c4O[C@H]2c2n[nH]cc2C[C@@]3(O)C1C5 (stereo partly drawn)
[1]
  Selectivity ratio: > 2
[2]
  Selectivity ratio: 1

## C=C(C)CN1CCC23c4c5ccc(OC)c4O[C@H]2c2[nH]c4ccccc4c2C[C@@]3(O)C1C5 (stereo partly drawn)
[3]
  pKi: < 4.85
[4]
  pKi: 6.30
Mu-type opioid receptor
  pKi: < 5.22
[1]
  Selectivity ratio: > 12
[2]
  Selectivity ratio: > 28

## C=C(C)CN1CCC23c4c5ccc(O)c4O[C@H]2C(=O)/C(=C/c2ccccc2)C[C@@]3(O)C1C5 (stereo partly drawn)
[3]
  pKi: 5.35
[4]
  pKi: 6.68
Mu-type opioid receptor
  pKi: 5.35
[1]
  Selectivity ratio: 21
[2]
  Selectivity ratio: 21

## C=C(C)CN1CCC23c4c5ccc(O)c4O[C@H]2c2ncc(-c4ccc(Cl)cc4)cc2C[C@@]3(O)C1C5 (stereo partly drawn)
[3]
  pKi: 6.52
[4]
  pKi: 7.80
Mu-type opioid receptor
  pKi: < 5.22
[1]
  Selectivity ratio: > 380
[2]
  Selectivity ratio: 19

## C=C(C)CN1CCC23c4c5ccc(OC)c4O[C@H]2c2ncc(-c4ccc(Cl)cc4)cc2C[C@@]3(O)C1C5 (stereo partly drawn)
[3]
  pKi: 5.49
[4]
  pKi: 6.59
Mu-type opioid receptor
  pKi: < 5.22
[1]
  Selectivity ratio: 23
[2]
  Selectivity ratio: 12

## C=C(C)CN1CCC23c4c5ccc(O)c4O[C@H]2C(=O)C2(Cc4ccccc4C2)C[C@@]3(O)C1C5 (stereo partly drawn)
[3]
  pKi: 6.00
[4]
  pKi: 7.39
Mu-type opioid receptor
  pKi: 5.70
[1]
  Selectivity ratio: 49
[2]
  Selectivity ratio: 24

## C=C(C)CN1CCC23c4c5ccc(OC)c4O[C@H]2C(=O)/C(=C/c2ccccc2)C[C@@]3(O)C1C5 (stereo partly drawn)
[3]
  pKi: < 5.15
[4]
  pKi: 5.47
Mu-type opioid receptor
  pKi: < 5.22
[1]
  Selectivity ratio: > 1
[2]
  Selectivity ratio: > 2

## C=C(C)CN1CCC23c4c5ccc(OC)c4O[C@H]2c2[nH]ncc2C[C@@]3(O)C1C5 (stereo partly drawn)
[3]
  pKi: 5.51
[4]
  pKi: 5.62
Mu-type opioid receptor
  pKi: < 5.22

## C=C(C)CN1CCC23c4c5ccc(O)c4O[C@H]2c2oc4ccccc4c2C[C@@]3(O)C1C5 (stereo partly drawn)
[3]
  pKi: 6.24
[4]
  pKi: 8.09
Mu-type opioid receptor
  pKi: 5.89
[1]
  Selectivity ratio: 160
[2]
  Selectivity ratio: 71

## C=C(C)CN1CCC23c4c5ccc(OC)c4O[C@H]2c2oc4ccccc4c2C[C@@]3(O)C1C5 (stereo partly drawn)
[3]
  pKi: < 5.00
[4]
  pKi: 7.36
Mu-type opioid receptor
  pKi: < 5.22
[1]
  Selectivity ratio: 140
[2]
  Selectivity ratio: 230

## C=C(C)CN1CCC23c4c5ccc(OC)c4O[C@H]2C(=O)C2(Cc4ccccc4C2)C[C@@]3(O)C1C5 (stereo partly drawn)
[3]
  pKi: < 5.15
[4]
  pKi: < 5.14
Mu-type opioid receptor
  pKi: < 5.22

## C=C(C)CN1CCC23c4c5ccc(O)c4O[C@H]2c2[nH]c4ccccc4c2C[C@@]3(O)C1C5 (stereo partly drawn)
[3]
  pKi: 5.42
[4]
  pKi: 8.33
Mu-type opioid receptor
  pKi: 5.10
[1]
  Selectivity ratio: 1700
[2]
  Selectivity ratio: 810

## C=C(C)CN1CCC23c4c5ccc(O)c4O[C@H]2c2n[nH]cc2C[C@@]3(O)C1C5 (stereo partly drawn)
[1]
  Selectivity ratio: 4
[2]
  Selectivity ratio: 1

## C=C(C)CN1CCC23c4c5ccc(O)c4O[C@H]2c2[nH]ncc2C[C@@]3(O)C1C5 (stereo partly drawn)
[3]
  pKi: 7.42
[4]
  pKi: 7.40
Mu-type opioid receptor
  pKi: 6.85
